One series deals with T1, human recombinant renin (Homo sapiens, UniProt P00797).
T1 construct: purchased Cayman 10006270
T1 sequence (P00797 67-406): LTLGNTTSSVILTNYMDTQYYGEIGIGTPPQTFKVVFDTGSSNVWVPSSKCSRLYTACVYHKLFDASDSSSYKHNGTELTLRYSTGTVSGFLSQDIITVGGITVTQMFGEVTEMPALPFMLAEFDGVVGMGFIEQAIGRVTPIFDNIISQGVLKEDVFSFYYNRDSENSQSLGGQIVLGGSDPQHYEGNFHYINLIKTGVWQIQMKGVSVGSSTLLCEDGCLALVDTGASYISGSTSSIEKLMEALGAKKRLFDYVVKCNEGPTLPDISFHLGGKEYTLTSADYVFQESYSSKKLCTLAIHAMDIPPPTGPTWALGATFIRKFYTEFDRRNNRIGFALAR
Description: Inhibition of human recombinant renin (modified Cayman renin inhibitor screening assay, fluorescence). Format: biochemical. To be noted: for inhibition at 0.01 µM: read-out: Renin inhibition (percent inhibition of renin activity) at 0.01 μM; for inhibition at 0.1 µM: read-out: Renin inhibition (percent inhibition of renin activity) at 0.1 μM. The procedure:
In-vitro protocol for the Inhibition of human recombinant renin by the compound of invention • Procedure: The enzymatic in vitro assay was performed in 96 well polypropylene plate (Nunc), using a modified Renin inhibitor screening assay protocol (Cayman, cat no: 10006270). The reaction system comprised assay buffer containing 50 mM Tris-HCL, pH=8.0 & 100 mM sodium chloride, human recombinant rennin (1:20 diluted with fixed activity), synthetic renin substrates (Cayman, cat no: 10006906) (14.4 μM) and different concentrations of renin inhibitors in DMSO in a total reaction system of 100 μl. The entire reaction mixture were incubated at 37° C. for 30 mins and the fluorescence was read at excitation wavelengths of 320-360 nm and emission wavelengths of 490-520 nm. Test compounds efficacy was determined by the percent inhibition of renin activity using Aliskiren (Tekturna) as a reference standard.
Following table represents measured IC50 values of the selected compounds for its inhibition of human recombinant renin.

The test system of a further series is Guinea Pigs. Briefly: Anaesthetized Guinea Pig Model (furosemide-treated, blood pressure via carotid artery). The class given is in vivo. Also noted: unit not given beside the values. To be noted: intravenous, change from pretreatment. How it is done:
Anaesthetized Guinea Pig Model
Experimental Procedure: Guinea Pigs were Treated with Furosemide in Drinking Water
(5 mg/kg/day) for four days and intramuscular injection (10 mg/kg) at 18 and 3 hr before experiment. There after they were anaesthetized by using intramuscular injection of xylazine and ketamine (7:70 mg/kg mixture). The left or right jugular vein was exposed and cannulated for intravenous administration of the NCEs. The to left or right carotid artery was exposed and cannulated for recording blood pressure using Biopac system. 0 (vehicle control), 3 and 10 mg of NCEs were administered and change in blood pressure from pretreatment was measured.

The mark [1] stands for this setting: 0.01 μM compound, 37° C., 30 mins, human recombinant renin.
The mark [2] stands for this setting: 0.1 μM compound, 37° C., 30 mins, human recombinant renin.

Structures are written as SMILES. Where a name gives a salt, the structure may show the parent alone.

For orientation: IC50 means the concentration that gives 50% inhibition. One may read the inhibition as how much of the control response was suppressed. One may read the melting point as the temperature of the solid-liquid transition. For the compound `O=C(NC1CCNCC1C(=O)N(Cc1cccc(Cl)c1Cl)C1CC1)c1ccc(OCCOc2c(Cl)cccc2Cl)cc1` (centres unmarked) [Example 1, N-cyclopropyl-N-(2,3-dichlorobenzyl)-4-(4-(2-(2,6-dichlorophenoxy)ethoxy)benzamido) piperidine-3-carboxamide], the melting point lay in the range of 66 to 68 °C. In addition, on human recombinant renin, the IC50 amounted to 0.016 µM. The inhibition at 0.01 µM on human recombinant renin (setting [1]) is 88%. The inhibition at 0.1 µM on human recombinant renin (setting [2]) is 100%. The “Reduction in M.A.B.P” value in the series with Guinea Pigs (3 mg) is 18. For the same compound, in the series on Guinea Pigs (10 mg), the “Reduction in M.A.B.P” value turned out to be 30.
On to `Cc1cc(Cl)c(OCCOc2ccc(C(=O)N[C@H]3CCNCC3C(=O)N(Cc3cccc(C)c3C)C3CC3)cc2)c(Cl)c1` (stereo partly drawn) [Example 26, (4S)—N-Cyclopropyl-4-(4-(2-(2,6-dichloro-4-methylphenoxy)ethoxy)benzamido)-N-(2,3-dimethylbenzyl)piperidine-3-carboxamide], for which, at human recombinant renin, the IC50 is 0.021 µM. Besides, the “Renin inhibition (percent inhibition of renin activity) at 0.01 μM” value on human recombinant renin (setting [1]) is 67%. The “Renin inhibition (percent inhibition of renin activity) at 0.1 μM” value on human recombinant renin (setting [2]) was 97%. Further, the “Reduction in M.A.B.P” value in the series with Guinea Pigs (3 mg) is 14; in the series on Guinea Pigs (10 mg) it was 28.
`COc1ccccc1CN(C(=O)C1CNCC[C@@H]1NC(=O)c1ccc(OCCOc2c(Cl)cc(C)cc2Cl)cc1)C1CC1.Cl` (stereo partly drawn) [Example 31, (4S)—N-Cyclopropyl-4-(4-(2-(2,6-dichloro-4-methylphenoxy)ethoxy)benzamido)-N-(2-methoxybenzyl)piperidine-3-carboxamide hydrochloride]: the IC50 at human recombinant renin stood at 0.037 µM. In addition, the inhibition at 0.01 µM at human recombinant renin (setting [1]) was 22%. Moreover, on human recombinant renin (setting [2]), the inhibition at 0.1 µM was 91%. The “Reduction in M.A.B.P” value came to 8 with Guinea Pigs (3 mg) and 28 in the series on Guinea Pigs (10 mg).
Turning to `COc1ccccc1COCCCOc1ccc(C(=O)N[C@H]2CCNCC2C(=O)N(Cc2ccccc2OC)C2CC2)cc1` (stereo partly drawn) [Example 33, (4S)—N-Cyclopropyl-N-(2-methoxybenzyl)-4-(4-(3-((2-methoxybenzyl)oxy)propoxy)benzamido)piperidine-3-carboxamide hydrochloride], the inhibition at 0.01 µM at human recombinant renin (setting [1]) was < 10%. On human recombinant renin (setting [2]), the inhibition at 0.1 µM is 17%.
Taken in the same sequence, the figures for `Cc1cc(Cl)c(OCCOc2ccc(C(=O)N[C@H]3CCNCC3C(=O)N(Cc3cccc(Cl)c3Cl)C3CC3)cc2)c(Cl)c1` (stereo partly drawn) [Example 35, (4S)—N-Cyclopropyl-4-(4-(2-(2,6-dichloro-4-methylphenoxy)ethoxy)benzamido)-N-(2,3-dichlorobenzyl)piperidine-3-carboxamide hydrochloride] were 60% and 95%.
In the case of `COc1cccc(CN(C(=O)C2CNCC[C@@H]2NC(=O)c2ccc(OCCOc3c(Cl)cc(C)cc3Cl)cc2)C2CC2)c1C` (stereo partly drawn) [Example 37, (4S)—N-Cyclopropyl-4-(4-(2-(2,6-dichloro-4-methylphenoxy)ethoxy)benzamido)-N-(3-methoxy-2-methylbenzyl)piperidine-3-carboxamide hydrochloride], the IC50 on human recombinant renin worked out at 0.017 µM. Besides, the inhibition at 0.01 µM at human recombinant renin (setting [1]) is 24%. Further, the inhibition at 0.1 µM at human recombinant renin (setting [2]) is 81%.

The values above are taken from patent US20120115907A1, “NOVEL COMPOUNDS AS INHIBITORS OF RENIN” (CADILA HEALTHCARE LIMITED, priority 2009, published 2012).
